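1) Cells in 96-well plates. 2) Compound, 48 h, 5 concentrations. 3) Linear interpolation between surrounding doses. 4) Unreached endpoint = highest concentration. Abbreviation: GI50, concentration required for 50% inhibition of growth. Definition used: TGI = concentration required for complete inhibition of growth.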
Columns and labels:
Experiment in all cases: DTP human tumour cell line panel, 48 h
[1] = system: OVCAR-3 ovarian
[2] = system: SK-MEL-5 melanoma
[3] = system: SF-295 CNS
[4] = system: SF-268 CNS
[5] = system: TK-10 renal
[6] = system: SK-MEL-28 melanoma
[7] = system: MDA-MB-435
[8] = system: SW-620 colon
[9] = system: 786-0 renal
[10] = system: CCRF-CEM leukemia

Molecule Cc1cc2cc3c(=O)[nH]c(=O)[nH]c3nc2cc1C has a TGI [1] greater than 100 µM, a TGI [2] greater than 100 µM and a TGI [3] greater than 100 µM. For the same molecule, the TGI [4] was greater than 100 µM, the TGI [5] was greater than 100 µM and the TGI [6] was greater than 100 µM. For the same molecule, the TGI [7] was greater than 100 µM, the TGI [8] was greater than 100 µM and the TGI [9] was greater than 100 µM.

Cc1ccc(S(=O)OCc2c(C)c(C)c(COS(=O)c3ccc(C)cc3)c(C)c2C)cc1 (stereo unspecified) was tested, and the TGI [1] was greater than 100 µM, the TGI [2] was greater than 100 µM and the TGI [3] was greater than 100 µM. For the same molecule, the TGI [4] was greater than 100 µM, the TGI [5] was greater than 100 µM and the TGI [6] was greater than 100 µM. For the same molecule, the TGI [8] was greater than 100 µM and the TGI [9] was greater than 100 µM.

In the case of COc1cccc2c1C(=O)c1c(O)c3c(c(O)c1C2=O)C[C@@](O)(/C(C)=N/NC(=O)c1ccc(Cl)cc1)C[C@@H]3OC1CC(N)C(O)C(C)O1 (stereo partly specified), the GI50 [1] is reported as 0.395 µM, the TGI [1] is reported as 2.4 µM and the GI50 [3] is reported as 0.236 µM. It also gave a TGI [3] of 2.2 µM, a GI50 [5] of 0.178 µM and a TGI [5] of 0.723 µM. The GI50 [9] was 0.249 µM, the TGI [9] was 1.69 µM and the GI50 [10] was 0.0903 µM. The TGI [10] was 2.32 µM.

COc1cc(/C=C\c2cc(OC)c(OC)c(OC)c2)cc(N/C=C\C(=O)c2cc(OC)c(OC)c(OC)c2)c1OC was tested, and the GI50 [1] was 2.31 µM, the TGI [1] was 5.82 µM and the GI50 [2] was 1.69 µM. It also gave a TGI [2] of 4.48 µM, a GI50 [3] of 2.4 µM and a TGI [3] greater than 100 µM. For the same molecule, the GI50 [4] was 6.04 µM, the TGI [4] was greater than 100 µM and the GI50 [5] was 5.93 µM. The TGI [5] was greater than 100 µM, the GI50 [6] was 4.28 µM and the TGI [6] was greater than 100 µM. The GI50 [8] was 4.12 µM, the TGI [8] was greater than 100 µM and the GI50 [9] was 3.76 µM. For the same molecule, the TGI [9] was greater than 100 µM, the GI50 [10] was 2.93 µM and the TGI [10] was greater than 100 µM.

In the case of C=CCN1CCC23c4c5ccc(O)c4OC2C(=NN=C2CCC4(O)C6Cc7ccc(O)c8c7C4(CCN6CC=C)C2O8)CCC3(O)C1C5 (stereo unspecified), the TGI [1] is reported as 34.5 µM, the TGI [2] is reported as 36.3 µM and the TGI [3] is reported as 40.9 µM. The TGI [4] was greater than 100 µM, the TGI [5] was 43.7 µM and the TGI [6] was 35.3 µM. The TGI [8] was 48.9 µM, the TGI [9] was 35.3 µM and the TGI [10] was greater than 100 µM.

For Cn1cc(-c2csc(-c3c[nH]c4ccc(Br)cc34)n2)c2cnccc21, the GI50 [1] was 2.08 µM, the TGI [1] was 4.19 µM and the GI50 [2] was 1.88 µM. The TGI [2] was 4.25 µM, the GI50 [4] was 2.83 µM and the TGI [4] was 7.96 µM. It also gave a GI50 [5] of 1.97 µM, a TGI [5] of 5.84 µM and a GI50 [6] of 1.7 µM. For the same molecule, the TGI [6] was 3.31 µM, the GI50 [8] was 1.81 µM and the TGI [8] was 3.46 µM. The GI50 [9] was 1.63 µM, the TGI [9] was 3.4 µM and the GI50 [10] was 0.422 µM. It also gave a TGI [10] of 1.86 µM.

COc1ccc(/C(=C\C=C(C#N)C#N)Sc2nc3ccccc3s2)cc1 gave a GI50 [1] of 8.26 µM, a TGI [1] of 17.7 µM and a GI50 [2] of 7.87 µM. It also gave a TGI [2] of 16.5 µM, a GI50 [3] of 13.6 µM and a TGI [3] of 39.9 µM. For the same molecule, the GI50 [4] was 8.53 µM, the TGI [4] was 25.2 µM and the GI50 [5] was 5.43 µM. For the same molecule, the TGI [5] was 11.8 µM, the GI50 [7] was 8.34 µM and the TGI [7] was 18.5 µM. For the same molecule, the GI50 [8] was 1.77 µM, the TGI [8] was greater than 50 µM and the GI50 [9] was 1.7 µM. The TGI [9] was 5.66 µM.

Molecule CCN(CC)CCSc1c2ccccc2nc2c(OC)ccc(OC)c12 has a TGI [2] of 16.5 µM, a TGI [3] of 59.4 µM and a TGI [4] of 26.1 µM. It also gave a TGI [5] of 17.3 µM, a TGI [6] of 8.91 µM and a TGI [9] greater than 20.6 µM. It also gave a TGI [10] greater than 68.9 µM.

With C[Si](C)(C)/C(I)=C/CO the TGI [1] was 73.1 µM, the TGI [2] was 34.6 µM and the TGI [3] was 58.3 µM. It also gave a TGI [4] of 94.1 µM, a TGI [5] of 96.9 µM and a TGI [6] of 77.5 µM. It also gave a TGI [8] of 47.8 µM, a TGI [9] greater than 100 µM and a TGI [10] of 48.2 µM.

For C[Si](C)(C)/C(Br)=C\CCN1C(=O)CCC1=O, the TGI [1] was greater than 100 µM, the TGI [2] was greater than 100 µM and the TGI [3] was greater than 100 µM. The TGI [4] was greater than 100 µM, the TGI [5] was greater than 100 µM and the TGI [6] was greater than 100 µM. The TGI [8] was greater than 100 µM, the TGI [9] was greater than 100 µM and the TGI [10] was greater than 100 µM.

In the case of O=C(/C=C/C=C/c1ccccc1)c1ccccc1, the TGI [1] is reported as 34.3 µM, the TGI [2] is reported as 30.2 µM and the TGI [4] is reported as 38.2 µM. It also gave a TGI [5] of 42.3 µM, a TGI [6] of 31.3 µM and a TGI [7] of 34.2 µM. For the same molecule, the TGI [8] was 30.3 µM and the TGI [9] was 27.4 µM.

For CC(C)(C)[Si](C)(C)OC1C(=O)C[C@H]2CCCC[C@@H]12 (stereo partly specified), the TGI [1] was greater than 100 µM, the TGI [2] was greater than 100 µM and the TGI [3] was greater than 100 µM. It also gave a TGI [4] greater than 100 µM, a TGI [5] greater than 100 µM and a TGI [8] greater than 100 µM. For the same molecule, the TGI [9] was greater than 100 µM and the TGI [10] was greater than 100 µM.

In the case of COC(=O)C1=C(C(=O)OC)C2=S(SC3=C2CCCC3)S1 (stereo unspecified), the TGI [1] is reported as 40.1 µM, the TGI [2] is reported as 4.71 µM and the TGI [3] is reported as greater than 100 µM. For the same molecule, the TGI [4] was greater than 100 µM, the TGI [5] was greater than 100 µM and the TGI [6] was greater than 100 µM. For the same molecule, the TGI [8] was 13 µM, the TGI [9] was 15.2 µM and the TGI [10] was 19.7 µM.

[N-]=[N+]=N/C1=C/CCCCC(=O)C1 showed a TGI [2] greater than 100 µM, a TGI [4] greater than 100 µM and a TGI [5] greater than 100 µM. The TGI [6] was greater than 100 µM, the TGI [8] was greater than 100 µM and the TGI [9] was greater than 100 µM. For the same molecule, the TGI [10] was greater than 100 µM.

Work on O=c1[nH]c2ccc(O)cc2o1 yielded a TGI [1] greater than 100 µM, a TGI [2] greater than 100 µM and a TGI [3] greater than 100 µM. The TGI [4] was greater than 100 µM, the TGI [5] was greater than 100 µM and the TGI [6] was greater than 100 µM. For the same molecule, the TGI [8] was greater than 100 µM, the TGI [9] was greater than 100 µM and the TGI [10] was greater than 100 µM.

O=C1CCC(=O)c2c1c(O)c1ccncc1c2O was tested, and the TGI [1] was 7.24 µM, the TGI [2] was 23.5 µM and the TGI [3] was 36.4 µM. The TGI [5] was 33 µM, the TGI [6] was 34.8 µM and the TGI [8] was 35.8 µM. The TGI [9] was 29.1 µM and the TGI [10] was 39.4 µM.

Work on CC(=O)N1CCC(=O)/C(=C/c2ccccc2)C1 yielded a TGI [1] of 93.5 µM, a TGI [2] greater than 100 µM and a TGI [3] greater than 100 µM. For the same molecule, the TGI [4] was 62.6 µM, the TGI [5] was greater than 100 µM and the TGI [6] was 38.3 µM. The TGI [8] was 34.8 µM and the TGI [9] was 69.6 µM.

Molecule COC12OCCN(C)C1=CC(=O)C1=NNC(C)C12 (stereo unspecified) has a TGI [1] greater than 100 µM, a TGI [2] greater than 100 µM and a TGI [3] greater than 100 µM. For the same molecule, the TGI [5] was greater than 100 µM, the TGI [6] was greater than 100 µM and the TGI [8] was greater than 100 µM. It also gave a TGI [9] greater than 100 µM and a TGI [10] greater than 100 µM.
